According to patent US11759461B2, “Small molecule inhibitors of cancer stem cells and mesenchymal cancer types” (The Scripps Research Institute, priority 2017, dated 2023):

Test system: FOXC2-expressing HMLER cells
Experiment: Cell Titer Glo viability of FOXC2-HMLER cells (high throughput screen and 10-point response)
Assay type: cell-based
Conditions: Homo sapiens; scored relative to parent compound 2; 72 hours; read-out: Activity Score, inhibition of FOXC2-expressing HMLER cells by Formula II compounds
How it was run: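 FOXC2-HMLER cells (HMLER run in parallel) seeded at 1,000 cells/well in MEGM, attached 1 h, then given compound in DMSO (2 μM in the screen). After 72 h, viability was read by Cell Titer Glo luminescence.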

Row | Compound | IC50 [µM]
1 | COc1ccc(NCc2cc3cc4c(cc3n(CC(=O)Nc3c(C)cccc3C)c2=O)OCCO4)cc1 [Compound 2HP] | > 20
2 | CCc1ccc(NCc2cc3ccc(OC)cc3n(CC(=O)Nc3cc(C)cc(C)c3)c2=O)cc1 [Compound 2HQ] | > 20
3 | CCc1ccc(NCc2cc3cc(OC)c(OC)cc3n(CC(=O)Nc3ccc(C)cc3)c2=O)cc1 [Compound 2HR] | > 20
4 | COc1ccccc1NC(=O)Cn1c(=O)c(CNc2ccc(C)cc2)cc2cc(OC)c(OC)cc21 [Compound 2HS] | > 20
5 | COc1ccc2cc(CNc3ccccc3)c(=O)n(CC(=O)Nc3ccccc3C)c2c1 [Compound 2HT] | > 20
6 | COc1ccc(NC(=O)Cn2c(=O)c(CNc3ccc(OC)c(OC)c3)cc3ccc(C)cc32)cc1 [Compound 2HU] | > 20
7 | COc1ccc2cc(CNc3ccc(C)cc3)c(=O)n(CC(=O)Nc3ccc(C(C)=O)cc3)c2c1 [Compound 2HV] | > 20
8 | COc1ccc2cc(CNc3ccc(OC)c(OC)c3)c(=O)n(CC(=O)Nc3ccc(C)cc3)c2c1 [Compound 2HW] | > 20
9 | COc1cccc(NC(=O)Cn2c(=O)c(CNc3ccc(C)cc3)cc3ccc(OC)cc32)c1 [Compound 2HX] | > 20
10 | COc1cccc(CNC(=O)Cn2c(=O)c(CNc3ccc(C)cc3)cc3ccc(OC)cc32)c1 [Compound 2HY] | > 20
11 | COc1ccc2cc(CNc3ccc(C)cc3)c(=O)n(CC(=O)NCc3ccc(Cl)cc3)c2c1 [Compound 2HZ] | > 20
12 | COc1ccc2cc(CNc3ccc(C)cc3)c(=O)n(CC(=O)Nc3cccc(Cl)c3C)c2c1 [Compound 2H] | 1 to 20
13 | COc1ccc2cc(CNc3ccccc3)c(=O)n(CC(=O)NCc3ccc(F)cc3)c2c1 [Compound 2IA] | > 20
14 | COc1ccc(NCc2cc3cc(OC)c(OC)cc3n(CC(=O)Nc3ccccc3)c2=O)cc1 [Compound 2IB] | > 20
15 | COc1ccc(NCc2cc3ccc(OC)cc3n(CC(=O)Nc3cccc(OC)c3)c2=O)cc1 [Compound 2IC] | > 20
16 | COc1ccc(NCc2cc3cc4c(cc3n(CC(=O)Nc3cccc(C)c3)c2=O)OCCO4)cc1 [Compound 2ID] | > 20
17 | COc1cc2cc(CNc3ccccc3)c(=O)n(CC(=O)Nc3cccc(Cl)c3)c2cc1OC [Compound 2IE] | > 20
18 | COc1cc(NC(=O)Cn2c(=O)c(CNc3ccccc3)cc3ccc(C)cc32)cc(OC)c1 [Compound 2IF] | > 20
19 | COc1ccc(NCc2cc3cc4c(cc3n(CC(=O)Nc3cc(C)cc(C)c3)c2=O)OCCO4)cc1 [Compound 2IG] | > 20
20 | CCc1ccc(NCc2cc3cc(OC)c(OC)cc3n(CC(=O)Nc3cc(C)cc(C)c3)c2=O)cc1 [Compound 2IH] | > 20
21 | CCOc1ccc(NC(=O)Cn2c(=O)c(CNc3ccccc3)cc3ccc(OC)cc32)cc1 [Compound 2II] | > 20
22 | COc1ccc(NCc2cc3cc(C)ccc3n(CC(=O)Nc3cc(C)cc(C)c3)c2=O)cc1 [Compound 2IJ] | > 20

Row | Compound | IC50 [µM]
23 | CCc1ccc(NC(=O)Cn2c(=O)c(CNc3ccc(OC)cc3)cc3cc4c(cc32)OCCO4)cc1 [Compound 2IK] | > 20
24 | CCc1ccc(NCc2cc3ccc(OC)cc3n(CC(=O)Nc3ccc(OC)cc3)c2=O)cc1 [Compound 2IL] | > 20
25 | COc1ccc2cc(CNc3ccc(C)cc3)c(=O)n(CC(=O)Nc3c(C)cccc3C)c2c1 [Compound 2IM] | > 20
26 | CCc1ccc(NCc2cc3cc(OC)c(OC)cc3n(CC(=O)Nc3cc(C)ccc3C)c2=O)cc1 [Compound 2I] | 1 to 20
27 | CCc1ccc(NCc2cc3ccc(OC)cc3n(CC(=O)Nc3ccc(C)cc3C)c2=O)cc1 [Compound 2J] | 1 to 20
28 | COc1ccc2cc(CNc3ccc(C)cc3)c(=O)n(CC(=O)Nc3c(C)cc(C)cc3C)c2c1 [Compound 2K] | 1 to 20
29 | COc1ccc(NCc2cc3ccc(C)cc3n(CC(=O)Nc3cc(C)ccc3C)c2=O)cc1OC [Compound 2L] | 1 to 20
30 | COc1ccc2cc(CNc3ccc(C)cc3)c(=O)n(CC(=O)Nc3ccc(C)cc3Cl)c2c1 [Compound 2M] | 1 to 20
31 | CCc1ccc(NCc2cc3cc4c(cc3n(CC(=O)Nc3ccccc3CC)c2=O)OCCO4)cc1 [Compound 2N] | 1 to 20
32 | COc1ccc2cc(CNc3ccc(C)cc3)c(=O)n(CC(=O)Nc3ccccc3F)c2c1 [Compound 2O] | 1 to 20
33 | CCc1ccc(NCc2cc3cc4c(cc3n(CC(=O)Nc3ccccc3C)c2=O)OCCO4)cc1 [Compound 2P] | 1 to 20
34 | COc1ccc2cc(CNc3ccc(C)cc3)c(=O)n(CC(=O)Nc3ccc(Cl)cc3)c2c1 [Compound 2Q] | 1 to 20
35 | COc1ccc2cc(CNc3ccccc3)c(=O)n(CC(=O)Nc3cc(C)ccc3C)c2c1 [Compound 2R] | 1 to 20
36 | CCOc1ccc(NC(=O)Cn2c(=O)c(CNc3ccc(C)cc3)cc3cc4c(cc32)OCCO4)cc1 [Compound 2S] | 1 to 20
37 | CCc1ccc(NCc2cc3ccc(OC)cc3n(CC(=O)Nc3ccccc3F)c2=O)cc1 [Compound 2T] | 1 to 20
38 | COc1ccc2cc(CNc3ccc(C)cc3)c(=O)n(CC(=O)Nc3cc(C)ccc3C)c2c1 [Compound 2U] | 1 to 20
39 | COc1cc2cc(CNc3ccccc3)c(=O)n(CC(=O)Nc3ccc(C(C)C)cc3)c2cc1OC [Compound 2V] | 1 to 20
40 | COc1ccc(NCc2cc3cc4c(cc3n(CC(=O)Nc3cc(C)ccc3C)c2=O)OCCO4)cc1 [Compound 2W] | 1 to 20
41 | COc1cc2cc(CNc3ccccc3)c(=O)n(CC(=O)Nc3cc(C)ccc3C)c2cc1OC [Compound 2X] | 1 to 20
42 | COc1cc2cc(CNc3ccccc3)c(=O)n(CC(=O)Nc3cccc(Cl)c3C)c2cc1OC [Compound 2Y] | 1 to 20
43 | CCOc1ccc(NC(=O)Cn2c(=O)c(CNc3ccc(CC)cc3)cc3ccc(OC)cc32)cc1 [Compound 2Z] | 1 to 20
44 | COC(=O)c1ccccc1NC(=O)Cn1c(=O)c(CNc2ccccc2)cc2ccc(OC)cc21 [Compound 2] | < 1

Same assay, conditions: Homo sapiens; scored relative to parent compound 3; 72 hours; read-out: Activity Score, inhibition of FOXC2-expressing HMLER cells by Formula III compounds

Row | Compound | IC50 [µM]
45 | Cc1ccc(C(=O)N2CCN(c3ccc(F)cc3)CC2)cc1-n1nnc2cccnc21 [Compound 3AA] | 1 to 20
46 | Cc1ccc(CN2CCC(CNC(=O)c3ccc(C)c(-n4nnc5cccnc54)c3)CC2)cc1 [Compound 3AB] | 1 to 20
47 | Cc1ccc(C)c(N2CCN(CCCNC(=O)c3ccc(C)c(-n4nnc5cccnc54)c3)CC2)c1 [Compound 3AC] | 1 to 20
48 | Cc1ccc(Cl)cc1N1CCN(C(=O)c2cccc(-n3nnc4cccnc43)c2C)CC1 [Compound 3AD] | 1 to 20
49 | Cc1c(C(=O)NC2CC2)cccc1-n1nnc2cccnc21 [Compound 3AE] | 1 to 20
50 | Cc1c(C(=O)N2CCC(Cc3ccccc3)CC2)cccc1-n1nnc2cccnc21 [Compound 3AF] | 1 to 20
51 | Cc1ccc(C)c(N2CCN(CCCNC(=O)c3cccc(-n4nnc5cccnc54)c3C)CC2)c1 [Compound 3AH] | 1 to 20
52 | O=C(c1ccc(-n2nnc3cccnc32)cc1)N1CCC(Cc2ccccc2)CC1 [Compound 3AI] | 1 to 20
53 | Cc1c(C(=O)N2CCN(c3ccccc3)CC2)cccc1-n1nnc2cccnc21 [Compound 3AJ] | 1 to 20
54 | Cc1c(C(=O)NCCCN2CCC(Cc3ccccc3)CC2)cccc1-n1nnc2cccnc21 [Compound 3AK] | 1 to 20
55 | CN(Cc1ccccc1)C(=O)c1ccc(-n2nnc3cccnc32)cc1 [Compound 3AL] | > 20
56 | O=C(c1ccc(-n2nnc3cccnc32)cc1)N1CCN(c2ccccc2)CC1 [Compound 3AM] | > 20
57 | O=C(c1ccc(-n2nnc3cccnc32)cc1)N1CCN(C2CCCCC2)CC1 [Compound 3AN] | > 20
